Source: ChEMBL document CHEMBL3045943, “Novel N-aryl(alkaryl)-2-[(3-R-2-oxo-2H-[1,2,4]triazino[2,3-c]quinazoline-6-yl)thio]acetamides: synthesis, cytotoxicity, anticancer activity, COMPARE analysis and docking” (2013)

Key:
Format in all cases: functional
CAKI-1 = experiment: Cytotoxicity against Homo sapiens (human) Caki1 cells assessed as cell growth at 10 uM after 48 hr by SRB assay relative to control; conditions: CAKI-1, 48 h, read-out: Activity
LOX IMVI = experiment: Cytotoxicity against Homo sapiens (human) LOXIMVI cells assessed as cell growth at 10 uM after 48 hr by SRB assay relative to control; conditions: read-out: Activity
[1] = system: Photobacterium leiognathi; experiment: Growth inhibition of Photobacterium leiognathi Sh1 assessed as bio-luminescence at 0.1 mg/ml after 16 to 18 hr by chronic action test relative to control; design: scale not given: the % may be the effect or the level left
SW-620 = experiment: Cytotoxicity against Homo sapiens (human) SW620 cells assessed as cell growth at 10 uM after 48 hr by SRB assay relative to control; conditions: SW-620, 48 h, read-out: Activity
SF-268 = experiment: Cytotoxicity against Homo sapiens (human) SF268 cells assessed as cell growth at 10 uM after 48 hr by SRB assay relative to control; conditions: SF-268, 48 h, read-out: Activity
[2] = system: Photobacterium leiognathi; experiment: Growth inhibition of Photobacterium leiognathi Sh1 assessed as bio-luminescence at 0.1 mg/ml after 10 min by acute action test relative to control; design: scale not given: the % may be the effect or the level left
[3] = system: Photobacterium leiognathi; experiment: Growth inhibition of Photobacterium leiognathi Sh1 assessed as bio-luminescence at 0.025 mg/ml after 10 min by acute action test relative to control; design: scale not given: the % may be the effect or the level left
DU-145 = experiment: Cytotoxicity against Homo sapiens (human) DU145 cells assessed as cell growth at 10 uM after 48 hr by SRB assay relative to control; conditions: DU-145, 48 h, read-out: Activity
NCI-H460 = experiment: Cytotoxicity against Homo sapiens (human) NCI-H460 cells assessed as cell growth at 10 uM after 48 hr by SRB assay relative to control; conditions: NCI-H460, 48 h, read-out: Activity
A498 = experiment: Cytotoxicity against Homo sapiens (human) A498 cells after 48 hr by SRB assay; conditions: A498, 48 h
HCT-116 [4] = experiment: Cytotoxicity against Homo sapiens (human) HCT116 cells assessed as cell growth at 10 uM after 48 hr by SRB assay relative to control; conditions: HCT-116, 48 h, read-out: Activity
K562 = experiment: Cytotoxicity against Homo sapiens (human) K562 cells assessed as cell growth at 10 uM after 48 hr by SRB assay relative to control; conditions: K562, 48 h, read-out: Activity
[5] = system: Photobacterium leiognathi; experiment: Growth inhibition of Photobacterium leiognathi Sh1 assessed as bio-luminescence at 0.025 mg/ml after 16 to 18 hr by chronic action test relative to control; design: scale not given: the % may be the effect or the level left
SF-295 = experiment: Cytotoxicity against Homo sapiens (human) SF295 cells assessed as cell growth at 10 uM after 48 hr by SRB assay relative to control; conditions: SF-295, 48 h, read-out: Activity
HL-60(TB) = experiment: Cytotoxicity against Homo sapiens (human) HL-60(TB) cells assessed as cell growth at 10 uM after 48 hr by SRB assay relative to control; conditions: HL-60, 48 h, read-out: Activity
OVCAR-3 [6] = experiment: Cytotoxicity against Homo sapiens (human) OVCAR3 cells assessed as cell growth at 10 uM after 48 hr by SRB assay relative to control; conditions: OVCAR-3, 48 h, read-out: Activity
Hs-578T = experiment: Cytotoxicity against Homo sapiens (human) Hs 578T cells after 48 hr by SRB assay; conditions: for TGI: read-out: pTGI (converted)
MOLT-4 = experiment: Cytotoxicity against Homo sapiens (human) MOLT4 cells assessed as cell growth at 10 uM after 48 hr by SRB assay relative to control; conditions: MOLT-4, 48 h, read-out: Activity
[7] = system: Photobacterium leiognathi; experiment: Growth inhibition of Photobacterium leiognathi Sh1 assessed as bio-luminescence at 0.25 mg/ml after 16 to 18 hr by chronic action test relative to control; design: scale not given: the % may be the effect or the level left
786-0 [8] = experiment: Cytotoxicity against Homo sapiens (human) 786-0 cells after 48 hr by SRB assay; conditions: 786-0, 48 h
IGROV-1 = experiment: Cytotoxicity against Homo sapiens (human) IGROV1 cells assessed as cell growth at 10 uM after 48 hr by SRB assay relative to control; conditions: IGROV-1, 48 h, read-out: Activity
786-0 [9] = experiment: Cytotoxicity against Homo sapiens (human) 786-0 cells assessed as cell growth at 10 uM after 48 hr by SRB assay relative to control; conditions: 786-0, 48 h, read-out: Activity
HCT-116 [10] = experiment: Cytotoxicity against Homo sapiens (human) HCT116 cells after 48 hr by SRB assay; conditions: HCT-116, 48 h
A549 = experiment: Cytotoxicity against Homo sapiens (human) A549 cells assessed as cell growth at 10 uM after 48 hr by SRB assay relative to control; conditions: A549, 48 h, read-out: Activity
SR = experiment: Cytotoxicity against Homo sapiens (human) SR cells assessed as cell growth at 10 uM after 48 hr by SRB assay relative to control; conditions: read-out: Activity
SNB-75 = experiment: Cytotoxicity against Homo sapiens (human) SNB75 cells after 48 hr by SRB assay; conditions: SNB-75, 48 h; for TGI: read-out: pTGI (converted)
HOP-62 = experiment: Cytotoxicity against Homo sapiens (human) HOP62 cells after 48 hr by SRB assay; conditions: HOP-62, 48 h; for TGI: read-out: pTGI (converted)
MDA-MB-435 = experiment: Cytotoxicity against Homo sapiens (human) MDA-MB-435 cells assessed as cell growth at 10 uM after 48 hr by SRB assay relative to control; conditions: MDA-MB-435, 48 h, read-out: Activity
KM12 = experiment: Cytotoxicity against Homo sapiens (human) KM12 cells assessed as cell growth at 10 uM after 48 hr by SRB assay relative to control; conditions: KM12, 48 h, read-out: Activity
[11] = system: Photobacterium leiognathi; experiment: Growth inhibition of Photobacterium leiognathi Sh1 assessed as bio-luminescence at 0.25 mg/ml after 10 min by acute action test relative to control; design: scale not given: the % may be the effect or the level left
EKVX = experiment: Cytotoxicity against Homo sapiens (human) EKVX cells assessed as cell growth at 10 uM after 48 hr by SRB assay relative to control; conditions: read-out: Activity
RXF 393 = experiment: Cytotoxicity against Homo sapiens (human) RXF393 cells after 48 hr by SRB assay; conditions: RXF 393, 48 h; for TGI: read-out: pTGI (converted)
OVCAR-3 [12] = experiment: Cytotoxicity against Homo sapiens (human) OVCAR3 cells after 48 hr by SRB assay; conditions: OVCAR-3, 48 h
[13] = read-out: pLC50 (the source's name) (converted)

COc1ccccc1CNC(=O)CSc1nc2ccccc2c2nc(=O)c(-c3ccccc3)nn12
growth at 10 µM (CAKI-1): -13.6% | growth at 10 µM (LOX IMVI): 27.7% | Activity [1]: 80% | growth at 10 µM (SW-620): 30.2% | growth at 10 µM (SF-268): 43.5% | Activity [2]: 99.1% | Activity [3]: 111.5% | growth at 10 µM (DU-145): 0.48% | growth at 10 µM (NCI-H460): 8.38% | GI50 (A498): 1.17 µM | LC50 (A498): > 100 µM | TGI (A498; read-out: pTGI (converted)): 4.07 µM | growth at 10 µM (HCT-116 [4]): 33.1% | growth at 10 µM (K562): 26.4% | Activity [5]: 150% | growth at 10 µM (SF-295): 18.8% | growth at 10 µM (HL-60(TB)): 41.9% | growth at 10 µM (OVCAR-3 [6]): 21.3% | GI50 (Hs-578T): 3.09 µM | LC50 (Hs-578T): > 100 µM | TGI (Hs-578T): 9.12 µM | growth at 10 µM (MOLT-4): 52.3% | Activity [7]: 73.3% | GI50 (786-0 [8]): 2.24 µM | CC50 (786-0 [8]; [13]): > 100 µM | TGI (786-0 [8]; read-out: pTGI): 5.25 µM | growth at 10 µM (IGROV-1): 18.8% | growth at 10 µM (786-0 [9]): 35.3% | GI50 (HCT-116 [10]): 2.69 µM | CC50 (HCT-116 [10]; [13]): > 100 µM | TGI (HCT-116 [10]; read-out: pTGI): > 100 µM | growth at 10 µM (A549): 39.7% | growth at 10 µM (SR): 42.1% | GI50 (SNB-75): 2.24 µM | LC50 (SNB-75): 43.7 µM | TGI (SNB-75): 6.61 µM | GI50 (HOP-62): 2.34 µM | LC50 (HOP-62): 19.5 µM | TGI (HOP-62): 5.5 µM | growth at 10 µM (MDA-MB-435): 27.7% | growth at 10 µM (KM12): 43.3% | Activity [11]: 122.6% | growth at 10 µM (EKVX): 31.4% | GI50 (RXF 393): 1.78 µM | LC50 (RXF 393): > 100 µM | TGI (RXF 393): > 100 µM

COc1ccc(-c2nn3c(SCC(=O)Nc4ccccc4Cl)nc4ccccc4c3nc2=O)cc1
growth at 10 µM (CAKI-1): 54.7% | growth at 10 µM (LOX IMVI): 42.1% | Activity [1]: 35.4% | growth at 10 µM (SW-620): 13.9% | growth at 10 µM (SF-268): 53.9% | Activity [2]: 87.5% | Activity [3]: 83.3% | growth at 10 µM (DU-145): -17.9% | growth at 10 µM (NCI-H460): 24.1% | growth at 10 µM (HCT-116 [4]): 12.2% | growth at 10 µM (K562): 26.9% | Activity [5]: 54.5% | growth at 10 µM (SF-295): 23.9% | growth at 10 µM (HL-60(TB)): 38.6% | growth at 10 µM (OVCAR-3 [6]): 7.18% | GI50 (Hs-578T): 1.95 µM | LC50 (Hs-578T): > 100 µM | TGI (Hs-578T): 6.76 µM | growth at 10 µM (MOLT-4): 36.3% | GI50 (OVCAR-3 [12]): 1.38 µM | CC50 (OVCAR-3 [12]; [13]): > 100 µM | TGI (OVCAR-3 [12]; read-out: pTGI (converted)): 3.31 µM | Activity [7]: 33.3% | growth at 10 µM (IGROV-1): 38.4% | growth at 10 µM (786-0 [9]): 32.9% | growth at 10 µM (A549): -29.6% | growth at 10 µM (SR): 37% | GI50 (SNB-75): 2 µM | LC50 (SNB-75): 25.1 µM | TGI (SNB-75): 6.03 µM | GI50 (HOP-62): 2.88 µM | LC50 (HOP-62): 35.5 µM | TGI (HOP-62): 9.77 µM | growth at 10 µM (MDA-MB-435): 15.7% | growth at 10 µM (KM12): 34.8% | Activity [11]: 75% | growth at 10 µM (EKVX): 27.2% | GI50 (RXF 393): 2.63 µM | LC50 (RXF 393): 39.8 µM | TGI (RXF 393): 7.76 µM
